One block for each compound: values may come before it.
Tested on: 282377-053-R-J1-PDC complex spheroid viability
Experiment: Anticancer human tumor 282377-053-R-J1-PDC patient-derived colon adenocarcinoma cell line growth inhibition [RAS]
Conditions: for IC50: curve of first compound; for viability, T/C: stronger effect = lower value
Summary of the method: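 Tumour cells grown as complex spheroids with HUVEC endothelial cells and mesenchymal stem cells, treated with RAS pathway inhibitor combinations. Each agent spans half-log steps from near clinical Cmax, or 10 microM where Cmax is unknown.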

[1] = second compound 0.000949 µM, first compound 0.0316 µM
[2] = second compound 0.000949 µM, first compound 0.1 µM
[3] = second compound 0.000949 µM, first compound 0.316 µM
[4] = second compound 0.000949 µM, first compound 1 µM
[5] = second compound 0.000949 µM, first compound 3.16 µM
[6] = second compound 0.000949 µM, first compound 10 µM
[7] = second compound 0.003 µM, first compound 0.0316 µM
[8] = second compound 0.003 µM, first compound 0.1 µM
[9] = second compound 0.003 µM, first compound 0.316 µM
[10] = second compound 0.003 µM, first compound 1 µM
[11] = second compound 0.003 µM, first compound 3.16 µM
[12] = second compound 0.003 µM, first compound 10 µM
[13] = second compound 0.00949 µM, first compound 0.0316 µM
[14] = second compound 0.00949 µM, first compound 0.1 µM
[15] = second compound 0.00949 µM, first compound 0.316 µM
[16] = second compound 0.00949 µM, first compound 1 µM
[17] = second compound 0.00949 µM, first compound 3.16 µM
[18] = second compound 0.00949 µM, first compound 10 µM
[19] = second compound 0.03 µM, first compound 0.0316 µM
[20] = second compound 0.03 µM, first compound 0.1 µM
[21] = second compound 0.03 µM, first compound 0.316 µM
[22] = second compound 0.03 µM, first compound 1 µM
[23] = second compound 0.03 µM, first compound 3.16 µM
[24] = second compound 0.03 µM, first compound 10 µM
[25] = second compound 0.0949 µM, first compound 0.0316 µM
[26] = second compound 0.0949 µM, first compound 0.1 µM
[27] = second compound 0.0949 µM, first compound 0.316 µM
[28] = second compound 0.0949 µM, first compound 1 µM
[29] = second compound 0.0949 µM, first compound 3.16 µM
[30] = second compound 0.0949 µM, first compound 10 µM
[31] = second compound 0.3 µM, first compound 0.0316 µM
[32] = second compound 0.3 µM, first compound 0.1 µM
[33] = second compound 0.3 µM, first compound 0.316 µM
[34] = second compound 0.3 µM, first compound 1 µM
[35] = second compound 0.3 µM, first compound 3.16 µM
[36] = second compound 0.3 µM, first compound 10 µM
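Also: spheroids exposed to agents for seven days before readout.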
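For viability, T/C in this document: luminescence viability as percent of DMSO vehicle control wells.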

- IC50 (second compound 0.000949 µM): < 31.6 nM
- IC50 (second compound 0.003 µM): < 31.6 nM
- IC50 (second compound 0.00949 µM): < 31.6 nM
- IC50 (second compound 0.03 µM): < 31.6 nM
- IC50 (second compound 0.0949 µM): < 31.6 nM
- IC50 (second compound 0.3 µM): > 10000 nM
Compound: CC(=O)OC12COC1CC(O)C1(C)C(=O)C(O)C3=C(C)C(OC(=O)C(O)C(NC(=O)OC(C)(C)C)c4ccccc4)CC(O)(C(OC(=O)c4ccccc4)C21)C3(C)C (stereo unspecified) + CCn1c(-c2cccnc2C(C)OC)c2c3cc(ccc31)N1CCOC(CC(NC(=O)C(C(C)C)N(C)C(=O)C3(F)CCN(C(=O)C#CC(C)(C)N(C)C)CC3)C(=O)N3CCCC(N3)C(=O)OCC(C)(C)C2)C1
- viability, T/C [1]: 35%
- viability, T/C [2]: 39.9%
- viability, T/C [3]: 40.9%
- viability, T/C [4]: 50.3%
- viability, T/C [5]: 48.3%
- viability, T/C [6]: 109%
- viability, T/C [7]: 44.6%
- viability, T/C [8]: 44.1%
- viability, T/C [9]: 42.8%
- viability, T/C [10]: 43.7%
- viability, T/C [11]: 57.7%
- viability, T/C [12]: 92%
- viability, T/C [13]: 54.8%
- viability, T/C [14]: 43.4%
- viability, T/C [15]: 40.3%
- viability, T/C [16]: 42.8%
- viability, T/C [17]: 63.7%
- viability, T/C [18]: 84.7%
- viability, T/C [19]: 48.3%
- viability, T/C [20]: 39.7%
- viability, T/C [21]: 38.4%
- viability, T/C [22]: 52.5%
- viability, T/C [23]: 83.4%
- viability, T/C [24]: 94.6%
- viability, T/C [25]: 48.9%
- viability, T/C [26]: 51.1%
- viability, T/C [27]: 47.5%
- viability, T/C [28]: 55.4%
- viability, T/C [29]: 88%
- viability, T/C [30]: 117%
- viability, T/C [31]: 53.8%
- viability, T/C [32]: 54.5%
- viability, T/C [33]: 53.6%
- viability, T/C [34]: 66.4%
- viability, T/C [35]: 85.5%
- viability, T/C [36]: 119%

- IC50 (second compound 0.000949 µM): > 10000 nM
- IC50 (second compound 0.003 µM): > 10000 nM
- IC50 (second compound 0.00949 µM): > 10000 nM
- IC50 (second compound 0.03 µM): > 10000 nM
- IC50 (second compound 0.0949 µM): > 10000 nM
- IC50 (second compound 0.3 µM): > 10000 nM
Compound: NC1c2ccccc2OC12CCN(c1cnc3c(N4CCCc5ncccc54)n[nH]c3n1)CC2 (stereo unspecified) + CCn1c(-c2cccnc2C(C)OC)c2c3cc(ccc31)N1CCOC(CC(NC(=O)C(C(C)C)N(C)C(=O)C3(F)CCN(C(=O)C#CC(C)(C)N(C)C)CC3)C(=O)N3CCCC(N3)C(=O)OCC(C)(C)C2)C1
- viability, T/C [1]: 103%
- viability, T/C [2]: 104%
- viability, T/C [3]: 99.5%
- viability, T/C [4]: 101%
- viability, T/C [5]: 110%
- viability, T/C [6]: 125%
- viability, T/C [7]: 101%
- viability, T/C [8]: 100%
- viability, T/C [9]: 94.7%
- viability, T/C [10]: 100%
- viability, T/C [11]: 104%
- viability, T/C [12]: 103%
- viability, T/C [13]: 96.5%
- viability, T/C [14]: 104%
- viability, T/C [15]: 97.9%
- viability, T/C [16]: 114%
- viability, T/C [17]: 98.4%
- viability, T/C [18]: 71.9%
- viability, T/C [19]: 91.9%
- viability, T/C [20]: 101%
- viability, T/C [21]: 116%
- viability, T/C [22]: 94.8%
- viability, T/C [23]: 86%
- viability, T/C [24]: 110%
- viability, T/C [25]: 91.6%
- viability, T/C [26]: 123%
- viability, T/C [27]: 104%
- viability, T/C [28]: 97.9%
- viability, T/C [29]: 99%
- viability, T/C [30]: 118%
- viability, T/C [31]: 92.6%
- viability, T/C [32]: 88.4%
- viability, T/C [33]: 95.5%
- viability, T/C [34]: 96.8%
- viability, T/C [35]: 125%
- viability, T/C [36]: 141%

- IC50 (second compound 0.000949 µM): > 1000 nM
- IC50 (second compound 0.003 µM): > 1000 nM
- IC50 (second compound 0.00949 µM): > 1000 nM
- IC50 (second compound 0.03 µM): > 1000 nM
- IC50 (second compound 0.0949 µM): > 1000 nM
- IC50 (second compound 0.3 µM): > 1000 nM
Compound: Nc1ccn(C2OC(CO)C(O)C2(F)F)c(=O)n1 (stereo unspecified) + CCn1c(-c2cccnc2C(C)OC)c2c3cc(ccc31)N1CCOC(CC(NC(=O)C(C(C)C)N(C)C(=O)C3(F)CCN(C(=O)C#CC(C)(C)N(C)C)CC3)C(=O)N3CCCC(N3)C(=O)OCC(C)(C)C2)C1
- viability, T/C (second compound 0.000949 µM, first compound 0.00316 µM): 99.3%
- viability, T/C (second compound 0.000949 µM, first compound 0.01 µM): 105%
- viability, T/C [1]: 76%
- viability, T/C [2]: 92.6%
- viability, T/C [3]: 67.2%
- viability, T/C [4]: 57.9%
- viability, T/C (second compound 0.003 µM, first compound 0.00316 µM): 100%
- viability, T/C (second compound 0.003 µM, first compound 0.01 µM): 97.9%
- viability, T/C [7]: 99.2%
- viability, T/C [8]: 109%
- viability, T/C [9]: 81.1%
- viability, T/C [10]: 59%
- viability, T/C (second compound 0.00949 µM, first compound 0.00316 µM): 106%
- viability, T/C (second compound 0.00949 µM, first compound 0.01 µM): 97.9%
- viability, T/C [13]: 99.3%
- viability, T/C [14]: 96.8%
- viability, T/C [15]: 87.2%
- viability, T/C [16]: 66.1%
- viability, T/C (second compound 0.03 µM, first compound 0.00316 µM): 104%
- viability, T/C (second compound 0.03 µM, first compound 0.01 µM): 87.7%
- viability, T/C [19]: 112%
- viability, T/C [20]: 104%
- viability, T/C [21]: 103%
- viability, T/C [22]: 74.1%
- viability, T/C (second compound 0.0949 µM, first compound 0.00316 µM): 87%
- viability, T/C (second compound 0.0949 µM, first compound 0.01 µM): 98.8%
- viability, T/C [25]: 92.1%
- viability, T/C [26]: 74.3%
- viability, T/C [27]: 91.1%
- viability, T/C [28]: 68.5%
- viability, T/C (second compound 0.3 µM, first compound 0.00316 µM): 111%
- viability, T/C (second compound 0.3 µM, first compound 0.01 µM): 99.9%
- viability, T/C [31]: 92.8%
- viability, T/C [32]: 116%
- viability, T/C [33]: 90.9%
- viability, T/C [34]: 52.9%

Source: PubChem BioAssay AID2060905 (Molecular Pharmacology Branch, DTP, NCI, 2025)
